Laboratory results as given in ChEMBL document CHEMBL1201862, “PubChem BioAssay data set” (2004).
Activity calls are given as the source filed them.

What was measured:
Candida albicans [1] = assay: reversal of fluconazole resistance in C. albicans, dose response, CaCi-2 strain, Alamar Blue, dry powder, set 3 (AID 488907); type: functional, organism-based
Candida albicans [2] = assay: growth inhibition of azole-resistant C. albicans, dose response, CaCi-8 strain, Alamar Blue, dry powder, set 3 (AID 488905); type: functional, organism-based
Hexokinase HKDC1 = molecular target: T1, Hexokinase HKDC1 (Homo sapiens, UniProt Q2TB90); assay: SAR analysis of small molecule inhibitors of hexokinase domain containing I (HKDC1). [Related pubchem assays (depositor defined):AID493160, AID493190]; type: functional
T1 sequence (Q2TB90 whole entry): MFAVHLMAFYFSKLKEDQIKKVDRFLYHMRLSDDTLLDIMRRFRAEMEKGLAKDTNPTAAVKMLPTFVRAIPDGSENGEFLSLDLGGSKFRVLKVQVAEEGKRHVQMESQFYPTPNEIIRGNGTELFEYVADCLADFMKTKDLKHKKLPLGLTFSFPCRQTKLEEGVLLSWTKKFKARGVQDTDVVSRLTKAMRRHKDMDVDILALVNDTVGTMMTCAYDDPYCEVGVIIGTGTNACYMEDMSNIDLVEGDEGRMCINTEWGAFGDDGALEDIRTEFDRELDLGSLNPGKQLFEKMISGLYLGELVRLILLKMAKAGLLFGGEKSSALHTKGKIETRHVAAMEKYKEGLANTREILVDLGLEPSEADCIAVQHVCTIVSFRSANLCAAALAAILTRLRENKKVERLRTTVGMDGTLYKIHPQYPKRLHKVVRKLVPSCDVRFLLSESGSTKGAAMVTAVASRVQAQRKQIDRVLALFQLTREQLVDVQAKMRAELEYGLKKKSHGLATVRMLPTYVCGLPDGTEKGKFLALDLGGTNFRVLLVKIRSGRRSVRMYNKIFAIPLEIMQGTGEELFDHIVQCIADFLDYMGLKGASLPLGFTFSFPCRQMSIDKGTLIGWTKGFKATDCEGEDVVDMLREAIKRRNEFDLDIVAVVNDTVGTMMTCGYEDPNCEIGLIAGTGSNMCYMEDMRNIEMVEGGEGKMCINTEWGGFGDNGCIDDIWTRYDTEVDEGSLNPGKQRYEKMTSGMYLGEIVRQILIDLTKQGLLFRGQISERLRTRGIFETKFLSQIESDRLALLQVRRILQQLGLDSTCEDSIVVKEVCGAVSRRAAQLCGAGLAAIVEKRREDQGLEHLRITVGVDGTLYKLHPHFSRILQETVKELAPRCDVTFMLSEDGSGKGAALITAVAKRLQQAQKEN

Hexokinase-1 = Hexokinase-1 (Homo sapiens, UniProt P19367); assay: SAR analysis of small molecule inhibitors of hexokinase domain containing I (HKDC1) in the hexokinase 1 selectivity assay. [Related pubchem assays (depositor defined):AID493160, AID493190]; type: functional
[3] = molecular target: Dual specificity protein kinase CLK1 (Homo sapiens, UniProt P49759); assay: CLK1 kinase inhibitors, off-target check, dose response, selectivity assay for Dyrk1A inhibitor project, biochemical, cherry-picked samples (AID 588811)
Chain of Dual specificity protein kinase CLK1 (P49759 whole entry): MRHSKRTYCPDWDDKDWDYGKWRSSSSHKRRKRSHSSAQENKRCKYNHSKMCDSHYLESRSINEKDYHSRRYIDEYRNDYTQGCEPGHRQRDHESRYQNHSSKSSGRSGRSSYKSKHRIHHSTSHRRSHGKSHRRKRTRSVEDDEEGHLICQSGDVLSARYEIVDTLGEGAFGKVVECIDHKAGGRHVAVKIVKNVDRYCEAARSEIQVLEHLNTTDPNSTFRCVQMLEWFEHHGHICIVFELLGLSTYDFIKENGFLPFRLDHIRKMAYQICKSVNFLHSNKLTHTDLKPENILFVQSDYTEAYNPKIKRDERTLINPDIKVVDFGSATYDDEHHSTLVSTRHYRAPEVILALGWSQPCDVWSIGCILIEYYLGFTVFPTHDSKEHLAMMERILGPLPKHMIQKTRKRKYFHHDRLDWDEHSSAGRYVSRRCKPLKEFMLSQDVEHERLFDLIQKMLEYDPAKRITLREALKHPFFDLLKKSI

[4] = molecular target: Cyclin-dependent kinase 2 (Homo sapiens, UniProt P24941); assay: CDK2 kinase inhibitors, off-target check, dose response, selectivity assay for Dyrk1A inhibitor project, biochemical, cherry-picked samples (AID 602127)
[5] = molecular target: Beta-2 adrenergic receptor (Homo sapiens, UniProt P07550); assay: beta2AR agonists driving receptor internalization, dose response, cell-based, FAP fluorogen, flow cytometry, cherry pick 1 (AID 588763); type: functional
[6] = molecular target: T2, Ubiquitin-conjugating enzyme E2 N (Homo sapiens, UniProt P61088); type: functional
T2 sequence (P61088 whole entry): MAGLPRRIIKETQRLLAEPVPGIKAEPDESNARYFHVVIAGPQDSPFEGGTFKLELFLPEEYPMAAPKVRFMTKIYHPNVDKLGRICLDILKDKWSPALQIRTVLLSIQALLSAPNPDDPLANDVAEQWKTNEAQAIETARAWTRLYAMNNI

[7] = molecular target: Serine/threonine-protein phosphatase (Candida dubliniensis (strain CD36 / CBS 7987 / NCPF 3949 / NRRLY-17841) (Yeast), UniProt B9W6M3); assay: calcineurin pathway inhibitors in yeast reporter, dose response, S. cerevisiae, CDRE-lacZ, luminescence, secondary (AID 2388); type: functional, cell-based;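 also: yeast reporter cells carrying a calcineurin-responsive lacZ construct stimulated with calcium chloride; luminescent beta-galactosidase reporter signal in whole cells rather than isolated phosphatase activity; potency for inhibition where a drop in reporter signal means calcineurin blockade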
Chain of Serine/threonine-protein phosphatase (B9W6M3 whole entry): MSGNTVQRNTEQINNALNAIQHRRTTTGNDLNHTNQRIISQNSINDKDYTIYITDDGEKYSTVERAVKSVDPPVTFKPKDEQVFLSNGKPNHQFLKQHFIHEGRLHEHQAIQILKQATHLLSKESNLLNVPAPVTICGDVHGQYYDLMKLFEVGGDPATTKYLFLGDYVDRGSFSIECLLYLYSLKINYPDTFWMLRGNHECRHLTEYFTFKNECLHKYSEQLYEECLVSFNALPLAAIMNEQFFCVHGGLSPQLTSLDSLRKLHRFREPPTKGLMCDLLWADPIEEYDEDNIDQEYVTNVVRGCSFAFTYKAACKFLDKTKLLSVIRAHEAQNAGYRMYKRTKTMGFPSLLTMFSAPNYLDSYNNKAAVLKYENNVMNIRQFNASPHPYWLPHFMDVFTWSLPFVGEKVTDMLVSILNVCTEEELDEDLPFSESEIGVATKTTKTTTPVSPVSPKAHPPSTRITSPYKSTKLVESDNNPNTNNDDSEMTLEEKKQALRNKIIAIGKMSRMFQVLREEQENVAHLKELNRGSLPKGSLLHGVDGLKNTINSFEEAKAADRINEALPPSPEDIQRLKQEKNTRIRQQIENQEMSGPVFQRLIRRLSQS

[8] = molecular target: ATP-dependent molecular chaperone HSP82 (Candida albicans (strain WO-1) (Yeast), UniProt C4YTQ8); assay: loss of DOC-induced GRE-beta-galactosidase reporter signal, dose response, Hsp90 inhibitor project, S. cerevisiae, luminescence (AID 2400); type: functional, cell-based;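 also: beta-galactosidase luminescence from glucocorticoid response element reporter as proxy for Hsp90 function; inhibitor potency where signal loss means Hsp90 inhibition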
Bcl-2-related protein A1 = molecular target: T3, Bcl-2-related protein A1 (Mus musculus, UniProt Q07440); type: functional;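 also: confirmatory dose–response counterscreen on Bfl-1, used to check hits from a UBC13 polyubiquitin inhibitor campaign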
T3 sequence (Q07440 whole entry): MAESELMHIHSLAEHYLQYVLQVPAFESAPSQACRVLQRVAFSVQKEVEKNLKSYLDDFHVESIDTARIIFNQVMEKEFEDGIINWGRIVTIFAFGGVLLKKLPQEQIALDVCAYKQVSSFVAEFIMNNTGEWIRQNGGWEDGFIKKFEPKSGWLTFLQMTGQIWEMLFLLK

[9] = molecular target: T2, Ubiquitin-conjugating enzyme E2 N; type: functional; remark: listed apart in the source
Large T antigen = Large T antigen (Simian virus 40, UniProt P03070); type: functional, Betapolyomavirus macacae;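 also: Confirmatory-stage PubChem screen for compounds that inhibit SV40 T antigen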
Chain of Large T antigen (P03070 whole entry): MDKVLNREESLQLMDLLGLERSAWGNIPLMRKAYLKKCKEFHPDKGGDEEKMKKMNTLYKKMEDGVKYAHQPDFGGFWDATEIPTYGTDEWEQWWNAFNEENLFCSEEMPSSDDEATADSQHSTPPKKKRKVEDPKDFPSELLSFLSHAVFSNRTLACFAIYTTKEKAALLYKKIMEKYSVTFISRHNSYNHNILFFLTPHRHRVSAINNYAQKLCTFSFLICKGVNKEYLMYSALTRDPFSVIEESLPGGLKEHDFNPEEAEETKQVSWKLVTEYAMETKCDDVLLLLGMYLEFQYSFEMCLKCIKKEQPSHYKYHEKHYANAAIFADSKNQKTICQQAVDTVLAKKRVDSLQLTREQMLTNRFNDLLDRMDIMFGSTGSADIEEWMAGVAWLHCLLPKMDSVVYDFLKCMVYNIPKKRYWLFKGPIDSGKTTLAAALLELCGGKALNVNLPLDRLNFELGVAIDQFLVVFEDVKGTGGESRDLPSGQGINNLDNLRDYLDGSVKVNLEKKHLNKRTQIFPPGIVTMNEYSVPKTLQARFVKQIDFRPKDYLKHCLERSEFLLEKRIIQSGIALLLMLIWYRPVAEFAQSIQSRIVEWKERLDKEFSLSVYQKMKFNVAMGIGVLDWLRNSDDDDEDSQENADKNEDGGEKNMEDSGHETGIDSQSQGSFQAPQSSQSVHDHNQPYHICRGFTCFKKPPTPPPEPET

[10] = THP-1 cell cytotoxicity, dose response, cytotoxicity control for Vif-APOBEC3G degradation inhibitor project, THP-1 cells (AID 1117359); type: functional; settings: Human immunodeficiency virus 1, THP-1
[11] = molecular target: DNA (cytosine-5)-methyltransferase 1 (Homo sapiens, UniProt P26358); assay: DNMT1 methyltransferase inhibitors, confirmation, biochemical, fluorescent molecular beacon (AID 602386); type: functional
Chain of DNA (cytosine-5)-methyltransferase 1 (P26358 whole entry): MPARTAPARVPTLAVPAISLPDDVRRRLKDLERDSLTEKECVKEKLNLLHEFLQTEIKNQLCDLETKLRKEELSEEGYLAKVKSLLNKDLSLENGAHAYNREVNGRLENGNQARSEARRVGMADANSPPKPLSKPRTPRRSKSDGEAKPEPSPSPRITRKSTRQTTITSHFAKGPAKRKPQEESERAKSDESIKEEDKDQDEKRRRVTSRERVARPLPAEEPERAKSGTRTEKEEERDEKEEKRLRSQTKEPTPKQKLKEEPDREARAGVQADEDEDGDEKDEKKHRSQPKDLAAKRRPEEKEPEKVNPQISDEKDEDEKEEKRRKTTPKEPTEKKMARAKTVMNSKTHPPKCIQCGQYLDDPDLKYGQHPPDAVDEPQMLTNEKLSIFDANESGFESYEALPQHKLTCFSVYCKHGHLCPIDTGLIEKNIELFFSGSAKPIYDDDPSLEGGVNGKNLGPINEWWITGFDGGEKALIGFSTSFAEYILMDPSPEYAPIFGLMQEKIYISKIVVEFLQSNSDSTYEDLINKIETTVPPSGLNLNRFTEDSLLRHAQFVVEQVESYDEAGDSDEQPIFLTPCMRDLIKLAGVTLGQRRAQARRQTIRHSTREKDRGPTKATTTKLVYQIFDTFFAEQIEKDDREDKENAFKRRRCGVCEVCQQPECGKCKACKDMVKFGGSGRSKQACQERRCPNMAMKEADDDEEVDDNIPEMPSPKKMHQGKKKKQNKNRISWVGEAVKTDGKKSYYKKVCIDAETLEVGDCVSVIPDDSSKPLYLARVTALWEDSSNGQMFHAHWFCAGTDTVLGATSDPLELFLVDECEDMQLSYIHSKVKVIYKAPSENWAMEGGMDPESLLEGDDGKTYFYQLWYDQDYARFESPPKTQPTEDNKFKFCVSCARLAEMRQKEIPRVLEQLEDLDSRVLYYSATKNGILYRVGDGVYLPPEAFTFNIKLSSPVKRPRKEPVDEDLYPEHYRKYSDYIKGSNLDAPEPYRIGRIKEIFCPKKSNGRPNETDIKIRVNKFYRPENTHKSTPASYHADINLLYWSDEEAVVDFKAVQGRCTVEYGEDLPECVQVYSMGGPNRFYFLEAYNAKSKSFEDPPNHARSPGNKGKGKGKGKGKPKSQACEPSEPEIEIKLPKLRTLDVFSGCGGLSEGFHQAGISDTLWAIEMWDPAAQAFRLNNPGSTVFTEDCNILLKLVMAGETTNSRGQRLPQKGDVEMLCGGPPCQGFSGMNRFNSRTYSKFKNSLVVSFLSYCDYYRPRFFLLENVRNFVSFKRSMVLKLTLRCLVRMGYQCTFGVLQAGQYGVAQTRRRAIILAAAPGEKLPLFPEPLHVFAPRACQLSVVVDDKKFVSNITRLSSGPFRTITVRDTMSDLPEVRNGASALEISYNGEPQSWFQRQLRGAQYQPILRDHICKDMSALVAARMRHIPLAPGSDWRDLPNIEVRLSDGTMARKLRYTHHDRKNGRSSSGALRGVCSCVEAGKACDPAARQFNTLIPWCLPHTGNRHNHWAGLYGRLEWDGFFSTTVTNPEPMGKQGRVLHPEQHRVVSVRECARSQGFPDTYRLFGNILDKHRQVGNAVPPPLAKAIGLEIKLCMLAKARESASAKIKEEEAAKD

[12] = molecular target: Beta-adrenergic receptor kinase 1 (Homo sapiens, UniProt P25098); assay: aptamer displacement from bead-bound GRK2 – biochemical, cherry pick 1, bead flow cytometry, dose response (AID 504500)
Chain of Beta-adrenergic receptor kinase 1 (P25098 whole entry): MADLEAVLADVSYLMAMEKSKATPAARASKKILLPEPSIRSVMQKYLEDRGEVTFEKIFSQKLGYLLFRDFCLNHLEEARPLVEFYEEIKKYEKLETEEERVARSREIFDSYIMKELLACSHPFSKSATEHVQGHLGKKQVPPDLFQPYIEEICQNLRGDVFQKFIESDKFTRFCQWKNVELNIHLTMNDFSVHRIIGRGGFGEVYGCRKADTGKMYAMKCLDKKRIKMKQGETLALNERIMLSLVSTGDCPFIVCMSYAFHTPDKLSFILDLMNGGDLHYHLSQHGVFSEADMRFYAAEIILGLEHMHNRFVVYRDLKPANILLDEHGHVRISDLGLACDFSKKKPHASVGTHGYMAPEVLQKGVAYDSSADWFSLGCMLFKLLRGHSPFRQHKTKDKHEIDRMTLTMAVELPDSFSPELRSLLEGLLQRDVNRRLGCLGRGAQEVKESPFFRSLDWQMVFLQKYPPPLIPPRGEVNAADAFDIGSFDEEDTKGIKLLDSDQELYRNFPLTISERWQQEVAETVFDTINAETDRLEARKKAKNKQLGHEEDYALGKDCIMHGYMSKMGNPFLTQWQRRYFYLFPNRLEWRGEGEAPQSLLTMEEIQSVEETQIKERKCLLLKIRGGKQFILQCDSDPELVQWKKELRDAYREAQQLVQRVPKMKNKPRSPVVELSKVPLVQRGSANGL

[13] = molecular target: T4, Heat shock 70 kDa protein 1A (Homo sapiens, UniProt P0DMV8); assay: Hsp70 inhibitors, biochemical, TR-FRET (AID 786)
T4 sequence (P0DMV8 whole entry): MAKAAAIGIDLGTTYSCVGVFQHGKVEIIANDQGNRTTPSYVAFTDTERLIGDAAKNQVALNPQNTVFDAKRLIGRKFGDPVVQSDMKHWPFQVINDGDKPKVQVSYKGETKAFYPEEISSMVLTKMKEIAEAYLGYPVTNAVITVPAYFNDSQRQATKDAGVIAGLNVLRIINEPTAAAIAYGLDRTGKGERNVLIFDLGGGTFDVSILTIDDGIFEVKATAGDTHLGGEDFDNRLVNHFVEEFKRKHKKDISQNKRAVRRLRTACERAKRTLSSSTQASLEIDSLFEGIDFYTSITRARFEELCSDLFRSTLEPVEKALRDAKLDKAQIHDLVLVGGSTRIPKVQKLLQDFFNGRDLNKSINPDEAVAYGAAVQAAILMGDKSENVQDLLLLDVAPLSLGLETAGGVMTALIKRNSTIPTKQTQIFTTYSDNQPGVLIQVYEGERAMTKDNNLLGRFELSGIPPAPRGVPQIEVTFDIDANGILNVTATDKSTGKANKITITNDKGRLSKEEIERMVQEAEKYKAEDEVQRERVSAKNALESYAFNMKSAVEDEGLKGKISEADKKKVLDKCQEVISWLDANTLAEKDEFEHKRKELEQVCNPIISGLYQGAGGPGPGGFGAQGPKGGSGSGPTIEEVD

ORF 73 = ORF 73 (Human herpesvirus 8, UniProt O40947); assay: inhibitors of C-LANA binding to LBS DNA, dose response, biochemical, fluorescence polarization, cherry-picked samples (AID 504725); parameters: species or system Human gammaherpesvirus 8;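 also: fluorescence polarization of a labeled DNA duplex reporting LANA DNA binding; potency is for inhibitors that block LANA binding to the DNA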
Troponin, cardiac muscle = Troponin, cardiac muscle (Homo sapiens, UniProt P19429+P45379+P63316); assay: inhibitors of cardiac thin filament calcium sensitivity, dose response, biochemical, fluorescence, cardiac regulated thin filaments, triplicate IC50 (AID 504742); type: protein-complex assay
[14] = molecular target: T4, Heat shock 70 kDa protein 1A; assay: Hsp70 inhibitors, probe displacement, primary screen, biochemical, fluorescence polarization (AID 583)
[15] = molecular target: T5, RNA-binding protein pos-1 (Caenorhabditis elegans, UniProt G5EF15); assay: inhibitors of POS-1/mex-3 RNA binding, dose response, biochemical, fluorescence polarization (AID 1964);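 also: purified POS-1 fused to maltose binding protein made in E. coli; potency of compounds blocking POS-1 binding to fluorescent RNA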
T5 sequence (G5EF15 whole entry): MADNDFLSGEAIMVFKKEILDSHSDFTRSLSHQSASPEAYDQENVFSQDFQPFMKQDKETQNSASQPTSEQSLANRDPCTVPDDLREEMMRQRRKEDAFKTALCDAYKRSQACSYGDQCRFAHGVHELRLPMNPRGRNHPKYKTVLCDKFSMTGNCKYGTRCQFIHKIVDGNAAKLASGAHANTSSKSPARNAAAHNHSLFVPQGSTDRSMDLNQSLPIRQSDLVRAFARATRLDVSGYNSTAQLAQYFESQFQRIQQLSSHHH

[16] = molecular target: Induced myeloid leukemia cell differentiation protein Mcl-1 (Homo sapiens, UniProt Q07820); type: functional
[17] = molecular target: T6, Histone-lysine N-methyltransferase NSD2 (Homo sapiens, UniProt O96028); type: biochemical
T6 sequence (O96028 whole entry): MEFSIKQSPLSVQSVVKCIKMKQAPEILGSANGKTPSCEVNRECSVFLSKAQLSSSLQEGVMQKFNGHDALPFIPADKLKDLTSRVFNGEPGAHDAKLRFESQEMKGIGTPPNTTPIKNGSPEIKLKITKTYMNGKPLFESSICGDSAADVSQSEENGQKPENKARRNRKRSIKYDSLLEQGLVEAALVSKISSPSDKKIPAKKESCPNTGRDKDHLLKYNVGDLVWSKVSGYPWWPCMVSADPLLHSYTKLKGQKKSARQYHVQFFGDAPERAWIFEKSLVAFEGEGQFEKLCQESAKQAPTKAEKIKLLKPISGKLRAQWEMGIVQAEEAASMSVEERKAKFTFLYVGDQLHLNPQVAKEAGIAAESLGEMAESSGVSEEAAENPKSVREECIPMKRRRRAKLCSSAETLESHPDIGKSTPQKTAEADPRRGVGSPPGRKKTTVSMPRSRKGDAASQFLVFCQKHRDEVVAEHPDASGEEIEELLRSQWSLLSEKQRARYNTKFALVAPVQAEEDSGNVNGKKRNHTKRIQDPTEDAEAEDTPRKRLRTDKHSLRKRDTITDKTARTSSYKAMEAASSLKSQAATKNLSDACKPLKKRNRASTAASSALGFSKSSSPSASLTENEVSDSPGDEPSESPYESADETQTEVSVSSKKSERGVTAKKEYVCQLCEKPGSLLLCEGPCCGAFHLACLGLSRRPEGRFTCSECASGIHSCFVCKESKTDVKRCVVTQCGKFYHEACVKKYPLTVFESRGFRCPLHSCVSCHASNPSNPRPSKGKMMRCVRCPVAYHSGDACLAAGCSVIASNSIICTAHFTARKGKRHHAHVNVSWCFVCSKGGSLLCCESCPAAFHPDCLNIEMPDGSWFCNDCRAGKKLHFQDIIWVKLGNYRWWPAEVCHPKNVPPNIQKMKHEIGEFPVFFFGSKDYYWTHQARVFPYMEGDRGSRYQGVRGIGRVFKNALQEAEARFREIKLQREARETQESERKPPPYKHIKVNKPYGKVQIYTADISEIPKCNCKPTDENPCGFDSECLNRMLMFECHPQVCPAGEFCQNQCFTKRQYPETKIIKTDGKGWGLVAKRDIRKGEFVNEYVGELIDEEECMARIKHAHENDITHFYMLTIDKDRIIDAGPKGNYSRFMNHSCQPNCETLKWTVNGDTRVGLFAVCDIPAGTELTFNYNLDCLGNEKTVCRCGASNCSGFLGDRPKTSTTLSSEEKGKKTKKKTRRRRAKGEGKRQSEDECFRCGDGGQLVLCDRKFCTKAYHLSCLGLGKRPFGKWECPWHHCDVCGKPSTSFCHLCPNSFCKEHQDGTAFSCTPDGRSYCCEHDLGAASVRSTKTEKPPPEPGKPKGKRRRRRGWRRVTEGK

[18] = molecular target: T7, Rac GTPase-activating protein 1 (Homo sapiens, UniProt Q9H0H5); assay: MgcRacGAP GTPase-activating activity inhibitors, confirmation, biochemical, ADP Hunter fluorescence, primary and confirmatory (AID 624330); type: functional
T7 sequence (Q9H0H5 whole entry): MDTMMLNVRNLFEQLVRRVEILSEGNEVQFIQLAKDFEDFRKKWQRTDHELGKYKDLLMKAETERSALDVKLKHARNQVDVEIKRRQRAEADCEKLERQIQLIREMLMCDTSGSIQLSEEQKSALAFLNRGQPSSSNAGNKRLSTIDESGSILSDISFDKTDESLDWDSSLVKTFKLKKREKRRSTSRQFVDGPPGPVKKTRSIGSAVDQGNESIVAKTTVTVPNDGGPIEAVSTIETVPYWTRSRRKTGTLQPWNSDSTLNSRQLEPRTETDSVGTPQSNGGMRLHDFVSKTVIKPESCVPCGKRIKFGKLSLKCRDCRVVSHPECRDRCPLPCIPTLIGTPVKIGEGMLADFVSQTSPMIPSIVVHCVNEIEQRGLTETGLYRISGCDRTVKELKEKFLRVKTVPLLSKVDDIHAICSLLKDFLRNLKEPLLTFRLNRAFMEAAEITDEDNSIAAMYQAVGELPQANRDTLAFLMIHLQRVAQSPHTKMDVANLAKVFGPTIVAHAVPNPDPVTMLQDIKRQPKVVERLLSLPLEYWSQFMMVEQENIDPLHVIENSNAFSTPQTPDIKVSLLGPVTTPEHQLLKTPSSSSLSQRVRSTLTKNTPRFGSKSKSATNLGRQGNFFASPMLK

[19] = molecular target: T8, Zinc finger protein mex-5 (Caenorhabditis elegans, UniProt Q9XUB2); assay: MEX-5/TCR-2 RNA interaction inhibitors, dose response, biochemical, C. elegans, fluorescence polarization (AID 1960)
T8 sequence (Q9XUB2 whole entry): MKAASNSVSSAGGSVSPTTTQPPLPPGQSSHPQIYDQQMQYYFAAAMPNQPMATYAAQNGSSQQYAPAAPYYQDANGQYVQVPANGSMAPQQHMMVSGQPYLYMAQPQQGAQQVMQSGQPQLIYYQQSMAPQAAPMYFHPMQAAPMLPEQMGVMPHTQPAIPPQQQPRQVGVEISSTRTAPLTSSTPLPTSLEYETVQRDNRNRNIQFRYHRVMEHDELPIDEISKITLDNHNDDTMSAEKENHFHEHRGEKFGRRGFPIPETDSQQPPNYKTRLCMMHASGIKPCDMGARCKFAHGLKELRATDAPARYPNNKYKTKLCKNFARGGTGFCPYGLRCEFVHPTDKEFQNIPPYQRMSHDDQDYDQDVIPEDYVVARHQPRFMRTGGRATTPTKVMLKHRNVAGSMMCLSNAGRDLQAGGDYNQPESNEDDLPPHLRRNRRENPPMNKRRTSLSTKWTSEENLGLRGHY

Cc1ccc(C(=O)N2CCN(c3ccccn3)CC2)cc1
AC50 (Candida albicans [1]): 0.0979 µM (active)
AC50 (Candida albicans [2]): 10.4 µM (active)

O=c1c2ccccc2nc(/C=C/c2cccnc2)n1-c1ccccc1
IC50 (Hexokinase HKDC1): > 80 µM (inactive)
IC50 (Hexokinase-1): > 80 µM (inactive)

c1cncc(CNc2nccc(-c3ccc4[nH]ncc4c3)n2)c1
AC50 [3]: 0.0402 µM (active)
AC50 [4]: 3.52 µM (active)

CCOC(=O)N1CCN(c2nnc(-c3ccc(C)cc3)c3ccccc23)CC1
EC50 [5]: 1.04 µM (active)

Fc1cccc(-n2cc(-c3ccccc3)c3c(=S)[nH]cnc32)c1
IC50 [6]: 9.98 µM (active)
EC50 [7]: > 180 µM (inactive)
EC50 [8]: 19.2 µM (active)
IC50 (Bcl-2-related protein A1): > 20 µM (inactive)
IC50 [9]: > 20 µM (inactive)

CC1=NN(c2cccc(C(=O)O)c2)C(=O)/C1=C\C=C\c1ccco1
IC50 (Large T antigen): 27.6 µM (active)
CC50 [10]: > 40 µM (active)
IC50 [11]: 1.18 µM (active)
EC50 [12]: 14.8 µM (inactive)
IC50 [13]: 17.4 µM (active)
AC50 (ORF 73): 18 µM (active)
IC50 (Troponin, cardiac muscle): 15 µM (inactive)
IC50 [14]: 21.7 µM (active)
EC50 [15]: 19.9 µM (active)
IC50 [16]: 4.73 µM (active)
AC50 [17]: 2.19 µM (active)
IC50 [18]: 66.7 µM (active)
EC50 [19]: 23.7 µM (inconclusive)
